Biological target: Rho-associated protein kinase 1 (Homo sapiens, UniProt Q13464)
Experiment: In Vitro Assay
Details: pH 7.5

Chain of Rho-associated protein kinase 1 (Q13464 whole entry): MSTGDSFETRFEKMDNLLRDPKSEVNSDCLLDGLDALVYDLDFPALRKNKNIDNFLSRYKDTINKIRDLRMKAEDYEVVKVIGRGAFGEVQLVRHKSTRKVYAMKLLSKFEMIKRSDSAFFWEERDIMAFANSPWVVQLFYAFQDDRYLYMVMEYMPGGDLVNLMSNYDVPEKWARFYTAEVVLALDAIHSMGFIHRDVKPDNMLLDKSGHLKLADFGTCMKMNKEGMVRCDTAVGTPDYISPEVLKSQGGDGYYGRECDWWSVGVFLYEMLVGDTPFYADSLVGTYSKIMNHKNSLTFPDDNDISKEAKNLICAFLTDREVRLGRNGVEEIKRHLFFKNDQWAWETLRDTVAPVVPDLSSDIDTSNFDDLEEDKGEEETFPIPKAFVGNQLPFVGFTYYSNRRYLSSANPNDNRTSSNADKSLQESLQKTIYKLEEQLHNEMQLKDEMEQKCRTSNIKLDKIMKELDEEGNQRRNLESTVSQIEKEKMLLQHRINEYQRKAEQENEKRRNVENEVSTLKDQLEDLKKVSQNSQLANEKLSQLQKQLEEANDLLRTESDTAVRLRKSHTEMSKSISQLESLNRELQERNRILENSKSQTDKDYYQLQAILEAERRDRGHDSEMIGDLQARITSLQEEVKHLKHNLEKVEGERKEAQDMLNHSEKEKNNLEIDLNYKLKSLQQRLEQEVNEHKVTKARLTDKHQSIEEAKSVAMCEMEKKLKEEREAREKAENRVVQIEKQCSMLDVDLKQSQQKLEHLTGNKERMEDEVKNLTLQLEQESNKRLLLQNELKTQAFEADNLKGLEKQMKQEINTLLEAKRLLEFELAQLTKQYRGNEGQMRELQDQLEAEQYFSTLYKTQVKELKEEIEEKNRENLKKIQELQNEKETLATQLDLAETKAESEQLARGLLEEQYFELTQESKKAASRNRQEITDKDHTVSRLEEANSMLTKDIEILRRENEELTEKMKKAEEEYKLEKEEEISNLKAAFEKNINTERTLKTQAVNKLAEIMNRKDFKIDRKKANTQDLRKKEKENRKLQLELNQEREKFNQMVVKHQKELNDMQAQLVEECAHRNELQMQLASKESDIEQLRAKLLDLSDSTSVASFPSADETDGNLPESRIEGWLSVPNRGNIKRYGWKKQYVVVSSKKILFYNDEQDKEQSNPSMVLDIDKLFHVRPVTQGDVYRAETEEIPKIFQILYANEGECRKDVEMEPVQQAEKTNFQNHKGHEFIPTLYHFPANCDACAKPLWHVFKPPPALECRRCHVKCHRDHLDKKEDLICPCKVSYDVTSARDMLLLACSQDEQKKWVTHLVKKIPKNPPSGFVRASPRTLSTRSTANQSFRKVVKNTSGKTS

For `CNC(=O)C[C@@H](NC(=O)c1ccc(-c2cn[nH]c2)c(C)c1)c1ccccc1` [US9458110, 252], the IC50 was 41.1 nM.
